From US9321764B2, “Dihydro-pyrrolopyridinone inhibitors” (AbbVie Inc., priority 2013, dated 2016)

Columns and labels:
[1] = molecular target: T1, BRD4 (BDII_E352-M457) (Homo sapiens, UniProt O60885); assay: TR-FRET bromodomain binding assay, second bromodomain of BRD4; details: His-tagged BD2, 30 nM Alexa647 probe; TR-FRET protocol A-E given per row
T1 construct: proliferation; Protocol; made in house
Method: (§1) A time-resolved fluorescence resonance energy transfer (TR-FRET) assay was used to determine the affinities of compounds of the Examples listed in Table 1 for each bromodomain of BRD4. His-tagged first (BD1: amino acids K57-E168) and second (BD2: amino acids E352-E168) bromodomains of BRD4 were expressed and purified. An Alexa647-labeled BET-inhibitor was used as the fluorescent probe in the assay.
(§2) Compound dilution series were prepared in DMSO via an approximately 3-fold serial dilution from one of the following:
(§3) Assay method D: 2.5 mM-800 nM
For Assay methods A, C, and D: Compounds were then diluted 6:100 in assay buffer (20 mM Sodium Phosphate, pH 6.0, 50 mM NaCl, 1 mM Ethylenediaminetetraacetic acid, 0.01% Triton X-100, 1 mM DL-Dithiothreitol) to yield 3× working solutions. […] Twelve μL of this solution were added to the assay plate to reach a final volume of 18 μL.
TR-FRET data were normalized to the means of 24 no-compound controls (“high”) and 8 controls containing 1 μM un-labeled probe (“low”). Percent inhibition was plotted as a function of compound concentration and the data were fit with the 4 parameter logistic equation to obtain IC50s Inhibition constants (Ki) were calculated from the IC50s, probe Kd and probe concentration. Typical Z′ values were between 0.65 and 0.75.

[2] = molecular target: T2, BRD4 (BDI_K57-E168) (Homo sapiens, UniProt O60885); assay: TR-FRET bromodomain binding assay, first bromodomain of BRD4; details: His-tagged BD1, 100 nM Alexa647 probe; TR-FRET protocol A-E given per row
T2 construct: BD1: amino acids K57-E168; made in house
Method: as §1, §2
Assay method A: 250 μM-4.2 nM
Assay method B: 0.47 mM to 7.8 nM
Assay method C: 500 μM-8.5 nM
as §3
Assay method E: 0.047 mM to 0.78 nM or 5-fold serial dilution from Assay method D
For Assay methods A, C, and D: Compounds were then diluted 6:100 in assay buffer (20 mM Sodium Phosphate, pH 6.0, 50 mM NaCl, 1 mM Ethylenediaminetetraacetic acid, 0.01% Triton X-100, 1 mM DL-Dithiothreitol) to yield 3× working solutions. Six microliters (μL) of the working solution was then transferred to white, low-volume assay plates (Costar #3673). A 1.5× assay mixture containing His-tagged bromodomain, Europium-conjugated anti-His antibody (Invitrogen PV5596) and the Alexa-647-conjugated probe molecule was also prepared. Twelve μL of this solution were added to the assay plate to reach a final volume of 18 μL.
For Assay methods B and E: Compound dilutions were added directly into white, low-volume assay plates (Perkin Elmer Proxiplate 384 Plus #6008280) using a Labcyte Echo in conjunction with Labcyte Access and Thermo Multidrop CombinL robotics. Compounds were then suspended in eight microliters (μL) of assay buffer (20 mM Sodium Phosphate, pH 6.0, 50 mM NaCl, 1 mM Ethylenediaminetetraacetic acid disodium salt dihydrate, 0.01% Triton X-100, 1 mM DL-Dithiothreitol) containing His-tagged bromodomain, Europium-conjugated anti-His antibody (Invitrogen PV5596) and Alexa-647-conjugated probe.
The final concentration of 1× assay mixture for assay methods A, B, C, D, and E contains 2% DMSO, 8 nM His-tagged bromodomain, 1 nM Europium-conjugated anti-His-tag antibody and 100 nM or 30 nM probe (for BDI or BDII, respectively) and compound concentration in the range of: 5 μM-85 pM for method A, 9.19 μM 150 pM for method B, 10 μM-169 pM for method C, 50 μM-16 nM for method D, and 0.92 μM-15 pM for method E.
After a one-hour equilibration at room temperature, TR-FRET ratios were determined using an Envision multilabel plate reader (Ex 340, Em 495/520).
TR-FRET data were normalized to the means of 24 no-compound controls (“high”) and 8 controls containing 1 μM un-labeled probe (“low”). Percent inhibition was plotted as a function of compound concentration and the data were fit with the 4 parameter logistic equation to obtain IC50s Inhibition constants (Ki) were calculated from the IC50s, probe Kd and probe concentration. Typical Z′ values were between 0.65 and 0.75. The minimum significant ratio was determined to evaluate assay reproducibility (Eastwood et al., (2006) J Biomol Screen, 11: 253-261). The MSR was determined to be 2.03 for BDI and 1.93 for BDII, and a moving MSR (last six run MSR overtime) for both BDI and BDII was typically <3.

Ki [1] [nM]	Ki [2] [nM]	SMILES
> 4000	1150	Cn1cc(-c2cc(CNS(=O)(=O)c3cc(Cl)sc3Cl)ccc2Oc2ccc(F)cc2F)c2cc[nH]c(=O)c21 [Example 138, 2,5-dichloro-N-[4-(2,4-difluorophenoxy)-3-(1-methyl-7-oxo-6,7-dihydro-1H-pyrrolo[2,3-c]pyridin-3-yl)benzyl]thiophene-3-sulfonamide]
2310	870	Cn1cc(-c2ccccc2NCC2CC2)c2cc[nH]c(=O)c21 [Example 142, 3-{2-[(cyclopropylmethyl)amino]phenyl}-1-methyl-1,6-dihydro-7H-pyrrolo[2,3-c]pyridin-7-one]
1680	446	Cn1cc(-c2cc(CS(C)(=O)=O)cnc2Cl)c2cc[nH]c(=O)c21 [Example 143, 3-{2-chloro-5-[(methylsulfonyl)methyl]pyridin-3-yl}-1-methyl-1,6-dihydro-7H-pyrrolo[2,3-c]pyridin-7-one]
296	174	Cn1cc(-c2cc(F)cnc2Nc2ccc(F)cc2)c2cc[nH]c(=O)c21 [Example 145, 3-{5-fluoro-2-[(4-fluorophenyl)amino]pyridin-3-yl}-1-methyl-1,6-dihydro-7H-pyrrolo[2,3-c]pyridin-7-one]
90.1	25.3	Cn1cc(-c2cc(N)ccc2Oc2ccc(F)cc2F)c2cc[nH]c(=O)c21 [Example 146, 3-[5-amino-2-(2,4-difluorophenoxy)phenyl]-1-methyl-1,6-dihydro-7H-pyrrolo[2,3-c]pyridin-7-one]
134	59.4	CC(C)CCC(=O)Nc1ccc(Oc2ccc(F)cc2F)c(-c2cn(C)c3c(=O)[nH]ccc23)c1 [Example 147, N-[4-(2,4-difluorophenoxy)-3-(1-methyl-7-oxo-6,7-dihydro-1H-pyrrolo[2,3-c]pyridin-3-yl)phenyl]-4-methylpentanamide]
54	41.6	COc1ccccc1CC(=O)Nc1ccc(Oc2ccc(F)cc2F)c(-c2cn(C)c3c(=O)[nH]ccc23)c1 [Example 149, N-[4-(2,4-difluorophenoxy)-3-(1-methyl-7-oxo-6,7-dihydro-1H-pyrrolo[2,3-c]pyridin-3-yl)phenyl]-2-(2-methoxyphenyl)acetamide]
145	22	Cn1cc(-c2cc(NC(=O)c3ccccn3)ccc2Oc2ccc(F)cc2F)c2cc[nH]c(=O)c21 [Example 150, N-[4-(2,4-difluorophenoxy)-3-(1-methyl-7-oxo-6,7-dihydro-1H-pyrrolo[2,3-c]pyridin-3-yl)phenyl]pyridine-2-carboxamide]
95.3	141	Cn1cc(-c2cc(NC(=O)CCc3ccccc3)ccc2Oc2ccc(F)cc2F)c2cc[nH]c(=O)c21 [Example 152, N-[4-(2,4-difluorophenoxy)-3-(1-methyl-7-oxo-6,7-dihydro-1H-pyrrolo[2,3-c]pyridin-3-yl)phenyl]-3-phenylpropanamide]
293	321	Cn1cc(-c2cc(NC(=O)CCCOc3ccccc3)ccc2Oc2ccc(F)cc2F)c2cc[nH]c(=O)c21 [Example 153, N-[4-(2,4-difluorophenoxy)-3-(1-methyl-7-oxo-6,7-dihydro-1H-pyrrolo[2,3-c]pyridin-3-yl)phenyl]-4-phenoxybutanamide]
> 920	598	Cn1cc(-c2cc(NC(=O)c3ccc(COc4ccccc4)cc3)ccc2Oc2ccc(F)cc2F)c2cc[nH]c(=O)c21 [Example 156, N-[4-(2,4-difluorophenoxy)-3-(1-methyl-7-oxo-6,7-dihydro-1H-pyrrolo[2,3-c]pyridin-3-yl)phenyl]-4-(phenoxymethyl)benzamide]
333	118	Cn1cc(-c2cc(NC(=O)C3CCN(c4ccccc4)C3=O)ccc2Oc2ccc(F)cc2F)c2cc[nH]c(=O)c21 (stereo not shown) [Example 157, N-[4-(2,4-difluorophenoxy)-3-(1-methyl-7-oxo-6,7-dihydro-1H-pyrrolo[2,3-c]pyridin-3-yl)phenyl]-2-oxo-1-phenylpyrrolidine-3-carboxamide]
153	76.4	Cn1cc(-c2cc(NC(=O)Cc3noc4ccccc34)ccc2Oc2ccc(F)cc2F)c2cc[nH]c(=O)c21 [Example 158, 2-(1,2-benzoxazol-3-yl)-N-[4-(2,4-difluorophenoxy)-3-(1-methyl-7-oxo-6,7-dihydro-1H-pyrrolo[2,3-c]pyridin-3-yl)phenyl]acetamide]
59.6	62.4	Cn1cc(-c2cc(NC(=O)Cc3cc(Cl)ccc3F)ccc2Oc2ccc(F)cc2F)c2cc[nH]c(=O)c21 [Example 159, 2-(5-chloro-2-fluorophenyl)-N-[4-(2,4-difluorophenoxy)-3-(1-methyl-7-oxo-6,7-dihydro-1H-pyrrolo[2,3-c]pyridin-3-yl)phenyl]acetamide]
> 408	101	Cn1cc(-c2cc(NC(=O)Cc3ccc(Cl)cc3F)ccc2Oc2ccc(F)cc2F)c2cc[nH]c(=O)c21 [Example 160, 2-(4-chloro-2-fluorophenyl)-N-[4-(2,4-difluorophenoxy)-3-(1-methyl-7-oxo-6,7-dihydro-1H-pyrrolo[2,3-c]pyridin-3-yl)phenyl]acetamide]
79.1	> 238	Cc1ccc(CC(=O)Nc2ccc(Oc3ccc(F)cc3F)c(-c3cn(C)c4c(=O)[nH]ccc34)c2)cn1 [Example 161, N-[4-(2,4-difluorophenoxy)-3-(1-methyl-7-oxo-6,7-dihydro-1H-pyrrolo[2,3-c]pyridin-3-yl)phenyl]-2-(6-methylpyridin-3-yl)acetamide]
183	146	Cn1cc(-c2cc(NC(=O)Cc3ccc4c(c3)CCCO4)ccc2Oc2ccc(F)cc2F)c2cc[nH]c(=O)c21 [Example 162, N-[4-(2,4-difluorophenoxy)-3-(1-methyl-7-oxo-6,7-dihydro-1H-pyrrolo[2,3-c]pyridin-3-yl)phenyl]-2-(3,4-dihydro-2H-chromen-6-yl)acetamide]
81.3	24	Cc1ncc(CC(=O)Nc2ccc(Oc3ccc(F)cc3F)c(-c3cn(C)c4c(=O)[nH]ccc34)c2)s1 [Example 163, N-[4-(2,4-difluorophenoxy)-3-(1-methyl-7-oxo-6,7-dihydro-1H-pyrrolo[2,3-c]pyridin-3-yl)phenyl]-2-(2-methyl-1,3-thiazol-5-yl)acetamide]
73	11	Cc1cc(CC(=O)Nc2ccc(Oc3ccc(F)cc3F)c(-c3cn(C)c4c(=O)[nH]ccc34)c2)nn1C [Example 164, N-[4-(2,4-difluorophenoxy)-3-(1-methyl-7-oxo-6,7-dihydro-1H-pyrrolo[2,3-c]pyridin-3-yl)phenyl]-2-(1,5-dimethyl-1H-pyrazol-3-yl)acetamide]
105	214	Cn1cc(-c2cc(NC(=O)Cn3cc(-c4ccccc4F)cn3)ccc2Oc2ccc(F)cc2F)c2cc[nH]c(=O)c21 [Example 165, N-[4-(2,4-difluorophenoxy)-3-(1-methyl-7-oxo-6,7-dihydro-1H-pyrrolo[2,3-c]pyridin-3-yl)phenyl]-2-[4-(2-fluorophenyl)-1H-pyrazol-1-yl]acetamide]
